Laboratory results: patent publication US8686024B2, “Indoline derivatives” (priority 2009, dated 2014)
Read-outs that look alike come from different tables or passages of the source.

Key:
[1] = molecular target: T1, acetylcholine esterase (AChE) (Mus musculus, UniProt P21836); experiment: In vitro assay for choline esterase inhibition (Ellman method), acetylthiocholine substrate, mouse brain homogenate; format: biochemical
T1 construct: brain homogenate and serum of mouse were used as choline esterase enzyme sources; from tissue; host or cells: mouse brain homogenate
T1 sequence (P21836 32-614): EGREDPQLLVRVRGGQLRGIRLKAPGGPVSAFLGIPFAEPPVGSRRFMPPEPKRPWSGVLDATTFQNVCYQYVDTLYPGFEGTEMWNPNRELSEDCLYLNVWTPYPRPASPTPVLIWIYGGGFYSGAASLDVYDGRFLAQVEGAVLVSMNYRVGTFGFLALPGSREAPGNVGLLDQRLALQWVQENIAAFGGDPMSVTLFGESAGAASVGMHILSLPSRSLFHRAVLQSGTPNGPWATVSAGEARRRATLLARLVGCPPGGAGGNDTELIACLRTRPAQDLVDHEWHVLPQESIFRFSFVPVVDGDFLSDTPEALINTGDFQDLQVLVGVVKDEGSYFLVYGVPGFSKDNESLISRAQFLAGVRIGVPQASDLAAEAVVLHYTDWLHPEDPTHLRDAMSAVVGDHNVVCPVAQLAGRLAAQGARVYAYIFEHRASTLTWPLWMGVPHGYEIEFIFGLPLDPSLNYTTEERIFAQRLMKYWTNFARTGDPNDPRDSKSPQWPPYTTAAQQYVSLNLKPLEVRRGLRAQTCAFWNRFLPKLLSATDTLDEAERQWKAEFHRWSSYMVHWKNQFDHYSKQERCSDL
Protocol: (§1) For measurement of esterase activity, brain homogenate and serum of mouse were used as choline esterase enzyme sources, and the method of Ellman et. al (Biochemical pharmacology 7: 88-95 1961) were referred. Compound of each example were diluted in dimethylsulfoxide.
(§2) In detail, acetylthiocholine or butyrylthiocholine as substrates, test compounds, and DNTB [[…]] were added to the mouse brain homogenate or serum, respectively.
(§3) After incubation, thiocholine was produced by enzyme reaction in the mixture, and then, the yellow product was formed by the reaction of thiocholine and DTNB. The activity of acetylcholine esterase (AChE) or butyrylcholine esterase (BuChE) was evaluated by determination of absorbance at 415 nm. […] And the selectivity for BuChE inhibition of each compound was calculated by the ratio: IC50 (AchE)/IC50 (BuChE).

[2] = molecular target: T2, butyrylcholine esterase (BuChE) (Mus musculus, UniProt Q03311); experiment: In vitro assay for choline esterase inhibition (Ellman method), butyrylthiocholine substrate, mouse serum; format: biochemical; conditions: for Ratio AChE/BuChE: selectivity for BuChE inhibition: IC50 (AchE)/IC50 (BuChE); for selectivity to butyrylcholinesterase (BuChE versus AChE inhibitory activity), in words: summary of Tables 1-3
T2 construct: brain homogenate and serum of mouse were used as choline esterase enzyme sources; from tissue; host or cells: mouse serum
Protocol: as §1, §2, §3

[3] = mouse brain homogenate, acetylthiocholine, absorbance at 415 nm, read-out: AChE inhibitory activity IC50
[4] = mouse serum, butyrylthiocholine, absorbance at 415 nm, read-out: BuChE inhibitory activity IC50

T2 sequence (Q03311 30-603): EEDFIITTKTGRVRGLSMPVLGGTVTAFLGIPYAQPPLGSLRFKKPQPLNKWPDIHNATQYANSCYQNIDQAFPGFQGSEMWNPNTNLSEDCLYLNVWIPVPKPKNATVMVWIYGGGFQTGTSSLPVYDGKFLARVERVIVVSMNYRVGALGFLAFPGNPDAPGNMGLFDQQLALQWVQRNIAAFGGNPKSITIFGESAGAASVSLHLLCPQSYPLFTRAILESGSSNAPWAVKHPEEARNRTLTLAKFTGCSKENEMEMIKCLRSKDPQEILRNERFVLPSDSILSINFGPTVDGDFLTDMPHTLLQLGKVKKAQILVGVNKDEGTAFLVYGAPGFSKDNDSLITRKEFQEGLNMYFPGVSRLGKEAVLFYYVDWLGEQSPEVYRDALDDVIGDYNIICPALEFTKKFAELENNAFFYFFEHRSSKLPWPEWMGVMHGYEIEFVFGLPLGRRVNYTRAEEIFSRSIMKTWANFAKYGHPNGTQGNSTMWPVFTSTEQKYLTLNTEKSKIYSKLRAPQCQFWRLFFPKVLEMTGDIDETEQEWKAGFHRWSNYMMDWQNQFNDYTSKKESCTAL

| melting point [°C] | SMILES | IC50 [1, 3] [nM] | IC50 [2, 4] [nM] | Ratio AChE/BuChE [2] | IC50 [1] [nM] | IC50 [2] [nM] | selectivity to butyrylcholinesterase (BuChE versus AChE inhibitory activity), in words [2] | IC50 ([1]; read-out: AChE inhibitory activity IC50) [nM] |
| --- | --- | --- | --- | --- | --- | --- | --- | --- |
| 132 to 136 | O=C(Nc1ccncc1)Oc1ccc2c(c1)CCN2Cc1ccccc1 | – | – | – | – | – | – | – |
| – | O=C(NCc1ccccc1)Oc1ccc2c(c1)CCN2 [Example 127, indolin-5-yl benzylcarbamate] | 750 | 610 | 1.2 | – | – | – | – |
| – | O=C(NC1CCN(Cc2ccccc2)CC1)Oc1ccc2c(c1)CCN2Cc1ccccc1 [Example 138, 1-benzylindolin-5-yl 1-benzylpiperidin-4-ylcarbamate] | – | – | >110 | > 100000 | 900 | – | – |
| – | O=C(NCC1CCCCC1)Oc1ccc2c(c1)CCN2Cc1ccccc1 [Example 34, 1-benzylindolin-5-yl cyclohexylmethylcarbamate] | – | – | >33000 | > 100000 | 3 | much higher | – |
| – | Cc1ccc(NC(=O)Oc2ccc3c(c2)CCN3Cc2ccccc2)cc1 [Example 55, 1-benzylindolin-5-yl-4-methylphenylcarbamate] | – | 290 | >340 | – | – | – | > 100000 |
| – | CCNC(=O)Oc1ccc2c(c1)CCN2Cc1ccccc1 [Example 57, 1-benzylindolin-5-yl ethylcarbamate] | 69000 | 34 | 2000 | – | – | much higher | – |
| – | COc1cccc(CNC(=O)Oc2ccc3c(c2)CCN3Cc2ccccc2)c1 [Example 100, 1-benzylindolin-5-yl 3-methoxybenzylcarbamate] | 1600 | 7.3 | 220 | – | – | much higher | – |
| – | O=C(Nc1ccc2c(c1)OCCO2)Oc1ccc2c(c1)CCN2Cc1ccccc1 [Example 11, 1-benzylindolin-5-yl 2,3-dihydro-1,4-benzodioxin-6-ylcarbamate] | – | – | >590 | > 100000 | 170 | – | – |
| – | CC(C)c1ccc(NC(=O)Oc2ccc3c(c2)CCN3Cc2c[nH]c3ccccc23)cc1 [Example 80, 1-(indol-3-ylmethyl)indolin-5-yl 4-isopropylphenylcarbamate] | – | – | >710 | > 100000 | 140 | – | – |
| – | CC(C)c1ccc(NC(=O)Oc2ccc3c(c2)CCN3Cc2cccnc2)cc1 [Example 28, 1-(3-pyridylmethyl)indolin-5-yl 4-isopropylphenylcarbamate] | – | – | >210 | > 100000 | 470 | – | – |
| – | CC(C)c1ccc(NC(=O)Oc2ccc3c(c2)CCN3Cc2ccccc2)cc1 [Example 2, 1-benzylindolin-5-yl 4-isopropylphenylcarbamate] | – | – | >180 | > 100000 | 570 | – | – |
| – | O=C(NCCC1CCN(Cc2ccccc2)CC1)Oc1ccc2c(c1)CCN2Cc1ccccc1 [Example 139, 1-benzylindolin-5-yl 2-(1-benzylpiperidin-4-yl)ethylcarbamate] | – | – | 63 | 2700 | 43 | – | – |
| – | CC(C)c1ccc(NC(=O)Oc2ccc3c(c2)CCN3Cc2ccccc2O)cc1 [Example 66, 1-(2-hydroxybenzyl)indolin-5-yl 4-isopropylphenylcarbamate] | – | – | >180 | > 100000 | 570 | – | – |
| – | CC(C)c1ccc(NC(=O)Oc2ccc3c(c2)CCN3CCC(C)(C)C)cc1 [Example 7, 1-(3,3-dimethylbutyl)indolin-5-yl 4-isopropylphenylcarbamate] | – | – | >110 | > 100000 | 900 | – | – |
| – | CC(C)c1ccc(NC(=O)Oc2ccc3c(c2)CCN3CCc2ccccc2)cc1 [Example 3, 1-phenethylindolin-5-yl 4-isopropylphenylcarbamate] | – | – | >83 | > 100000 | 1200 | – | – |
| – | CC(C)(C)CNC(=O)Oc1ccc2c(c1)CCN2Cc1ccccc1 [Example 153, 1-benzylindolin-5-yl 2,2-dimethylpropylcarbamate] | – | – | >1100 | > 100000 | 91 | much higher | – |

| melting point [°C] | SMILES | IC50 [1, 3] [nM] | IC50 [2, 4] [nM] | Ratio AChE/BuChE [2] | IC50 [1] [nM] | IC50 [2] [nM] | selectivity to butyrylcholinesterase (BuChE versus AChE inhibitory activity), in words [2] | IC50 ([1]; read-out: AChE inhibitory activity IC50) [nM] |
| --- | --- | --- | --- | --- | --- | --- | --- | --- |
| – | O=C(NCC1CCCO1)Oc1ccc2c(c1)CCN2Cc1ccccc1 (stereo not drawn) [Example 51, 1-benzylindolin-5-yl 2-tetrahydrofurylmethylcarbamate] | 18000 | 16 | 1100 | – | – | much higher | – |
| – | O=C(NCc1ccccc1)Oc1ccc2c(c1)CCN2Cc1ccccn1 [Example 150, 1-(2-pyridylmethyl)indolin-5-yl benzylcarbamate] | 110 | 10 | 11 | – | – | – | – |
| – | COc1ccc(CNC(=O)Oc2ccc3c(c2)CCN3Cc2ccccc2)cc1 [Example 31, 1-benzylindolin-5-yl 4-methoxybenzylcarbamate] | 4100 | 17 | 240 | – | – | much higher | – |
| – | O=C(Nc1ccc2c(c1)CCC2)Oc1ccc2c(c1)CCN2Cc1ccccc1 [Example 85, 1-benzylindolin-5-yl 5-indanylcarbamate] | – | – | >240 | > 100000 | 420 | – | – |
| – | O=C(NCC1CCOC1)Oc1ccc2c(c1)CCN2Cc1ccccc1 (stereo not drawn) [Example 155, 1-benzylindolin-5-yl 3-tetrahydrofurylmethylcarbamate] | 57000 | 15 | 3800 | – | – | much higher | – |
| – | CC(C)CNC(=O)Oc1ccc2c(c1)CCN2Cc1ccccc1 [Example 35, 1-benzylindolin-5-yl 2-methylpropylcarbamate] | 46000 | 8 | 5800 | – | – | much higher | – |
| – | CN(CC1CCCCC1)C(=O)Oc1ccc2c(c1)C(C)(C)CN2Cc1ccccc1 [Example 216, O-(1-benzyl-3,3-dimethylindolin-5-yl)-N-(cyclohexylmethyl)-N-methylcarbamate] | – | – | 23000 | 54000 | 2.4 | much higher | – |
| – | COc1ccccc1CCNC(=O)Oc1ccc2c(c1)CCN2Cc1ccccc1 [Example 117, 1-benzylindolin-5-yl 2-methoxyphenethylcarbamate] | 7900 | 24 | 330 | – | – | much higher | – |
| – | CC(C)c1ccc(CCNC(=O)Oc2ccc3c(c2)CCN3Cc2ccccc2)cc1 [Example 33, 1-benzylindolin-5-yl 4-isopropylphenethylcarbamate] | – | – | >290 | > 100000 | 350 | – | – |
| – | CC(C)c1ccc(NC(=O)Oc2ccc3c(c2)CCN3Cc2ccccn2)cc1 [Example 60, 1-(2-pyridylmethyl)indolin-5-yl 4-isopropylphenylcarbamate] | – | – | >770 | > 100000 | 130 | – | – |
| – | CN(C)c1ccc(NC(=O)Oc2ccc3c(c2)CCN3Cc2ccccn2)cc1 [Example 152, 1-(2-pyridylmethyl)indolin-5-yl 4-dimethylaminophenylcarbamate] | 1100 | 57 | 19 | – | – | – | – |
| – | CC(C)c1ccc(NC(=O)Oc2ccc3c(c2)CCN3CC2CCCCC2)cc1 [Example 75, 1-(cyclohexylmethyl)indolin-5-yl 4-isopropylphenylcarbamate] | – | – | >130 | > 100000 | 770 | – | – |
| – | CN(C)CCCNC(=O)Oc1ccc2c(c1)CCN2Cc1ccccc1 [Example 137, 1-benzylindolin-5-yl 3-(dimethylamino)propylcarbamate] | – | – | >560 | > 100000 | 180 | – | – |
| – | O=C(NCc1ccncc1)Oc1ccc2c(c1)CCN2Cc1ccccc1 [Example 103, 1-benzylindolin-5-yl 4-pyridylmethylcarbamate] | 9300 | 110 | 85 | – | – | – | – |
| – | O=C(NCCc1ccc(Cl)cc1)Oc1ccc2c(c1)CCN2Cc1ccccc1 [Example 104, 1-benzylindolin-5-yl 4-chlorophenethylcarbamate] | 5500 | 11 | 500 | – | – | much higher | – |
